Reference: patent publication US12691112B2, “FGFR tyrosine kinase inhibitors for the treatment of urothelial carcinoma” (Janssen Pharmaceutica NV, priority 2019, dated 2026)
Like-named read-outs stand apart in the source and are kept apart here.

Test system: subjects with metastatic or surgically unresectable urothelial cancer
[1] = all-causality, 10 mg intermittent, n = 33
[2] = treatment-emergent, all-causality, 8 mg Continuous, Regimen 3 (n = 99)
[3] = treatment-related, 6 mg Continuous, Regimen 2 (n = 78)
[4] = treatment-related, 8 mg Continuous Erdafitinib, Regimen 3 (n = 99)
[5] = treatment-related, 10 mg Intermittent, Regimen 1 (n = 33)

## COc1cc(OC)cc(N(CCNC(C)C)c2ccc3ncc(-c4cnn(C)c4)nc3c2)c1 [erdafitinib, N-(3,5-dimethoxy-phenyl)-N′-(1-methylethyl)-N-[3-(1-methyl-1H-pyrazol-4-yl)quinoxalin-6-yl]ethane-1,2-diamine]
[1]
  Decreased appetite, grade ≥ 3: 1 no.
  Diarrhea, any grade: 14 no.
  Diarrhea, grade 1: 7 no.
  Diarrhea, grade 2: 6 no.
  Diarrhea, grade ≥ 3: 1 no.
  Dry eye, any grade: 3 no.
  Dry eye, grade 1: 2 no.
  Dry eye, grade 2: 1 no.
  Dry eye, grade ≥ 3: 0 no.
  Dry mouth, any grade: 16 no.
  Dry mouth, grade 1: 15 no.
  Dry mouth, grade 2: 1 no.
  Dry mouth, grade ≥ 3: 0 no.
  Dry skin, any grade: 9 no.
  Dry skin, grade 1: 8 no.
  Dry skin, grade 2: 1 no.
  Dry skin, grade ≥ 3: 0 no.
  Dysgeusia, any grade: 10 no.
  Dysgeusia, grade 1: 7 no.
  Dysgeusia, grade 2: 3 no.
  Dysgeusia, grade ≥ 3: 0 no.
  Dyspepsia, any grade: 3 no.
  Dyspepsia, grade 1: 2 no.
  Dyspepsia, grade 2: 1 no.
  Dyspepsia, grade ≥ 3: 0 no.
  Dyspnea, any grade: 8 no.
  Dyspnea, grade 1: 3 no.
  Dyspnea, grade 2: 2 no.
  Dyspnea, grade ≥ 3: 3 no.
  Fatigue, any grade: 6 no.
  Fatigue, grade 1: 4 no.
  Fatigue, grade 2: 2 no.
  Fatigue, grade ≥ 3: 0 no.
  Hand-foot syndrome, any grade: 2 no.
  Hand-foot syndrome, grade 1: 0 no.
  Hand-foot syndrome, grade 2: 2 no.
  Hand-foot syndrome, grade ≥ 3: 0 no.
  Hematuria, any grade: 3 no.
  Hematuria, grade 1: 1 no.
  Hematuria, grade 2: 2 no.
  Hematuria, grade ≥ 3: 0 no.
  Hyperphosphatemia, any grade: 16 no.
  Hyperphosphatemia, grade 1: 15 no.
  Hyperphosphatemia, grade 2: 1 no.
  Hyperphosphatemia, grade ≥ 3: 0 no.
  Hypomagnesemia, any grade: 2 no.
  Hypomagnesemia, grade 1: 2 no.
  Hypomagnesemia, grade 2: 0 no.
  Hypomagnesemia, grade ≥ 3: 0 no.
  Hyponatremia, any grade: 2 no.
  Hyponatremia, grade 1: 0 no.
  Hyponatremia, grade 2: 0 no.
  Hyponatremia, grade ≥ 3: 2 no.
  Insomnia, any grade: 3 no.
  Insomnia, grade 1: 0 no.
  Insomnia, grade 2: 3 no.
  Insomnia, grade ≥ 3: 0 no.
  Lacrimation increased, any grade: 6 no.
  Lacrimation increased, grade 1: 5 no.
  Lacrimation increased, grade 2: 1 no.
  Lacrimation increased, grade ≥ 3: 0 no.
  Nail dystrophy, any grade: 2 no.
  Nail dystrophy, grade 1: 2 no.
  Nail dystrophy, grade 2: 0 no.
  Nail dystrophy, grade ≥ 3: 0 no.
  Nausea, any grade: 5 no.
  Nausea, grade 1: 3 no.
  Nausea, grade 2: 2 no.
  Nausea, grade ≥ 3: 0 no.
  Onycholysis, any grade: 7 no.
  Onycholysis, grade 1: 3 no.
  Onycholysis, grade 2: 3 no.
  Onycholysis, grade ≥ 3: 1 no.
  Onychomadesis, any grade: 1 no.
  Onychomadesis, grade 1: 1 no.
  Onychomadesis, grade 2: 0 no.
  Onychomadesis, grade ≥ 3: 0 no.
  Oropharyngeal pain, any grade: 0 no.
  Oropharyngeal pain, grade 1: 0 no.
  Oropharyngeal pain, grade 2: 0 no.
  Oropharyngeal pain, grade ≥ 3: 0 no.
  Pain in extremity, any grade: 5 no.
  Pain in extremity, grade 1: 3 no.
  Pain in extremity, grade 2: 1 no.
  Pain in extremity, grade ≥ 3: 1 no.
  Paronychia, any grade: 2 no.
  Paronychia, grade 1: 0 no.
  Paronychia, grade 2: 2 no.
  Paronychia, grade ≥ 3: 0 no.
  Peripheral edema, any grade: 5 no.
  Peripheral edema, grade 1: 1 no.
  Peripheral edema, grade 2: 4 no.
  Peripheral edema, grade ≥ 3: 0 no.
  Pyrexia, any grade: 5 no.
  Pyrexia, grade 1: 5 no.
  Pyrexia, grade 2: 0 no.
  Pyrexia, grade ≥ 3: 0 no.
  Retinal detachment, any grade: 2 no.
  Retinal detachment, grade 1: 1 no.
  Retinal detachment, grade 2: 1 no.
  Retinal detachment, grade ≥ 3: 0 no.
  Stomatitis, any grade: 16 no.
  Stomatitis, grade 1: 9 no.
  Stomatitis, grade 2: 6 no.
  Stomatitis, grade ≥ 3: 1 no.
  Urinary tract infection, any grade: 4 no.
  Urinary tract infection, grade 1: 0 no.
  Urinary tract infection, grade 2: 2 no.
  Urinary tract infection, grade ≥ 3: 2 no.
  Vision blurred, any grade: 5 no.
  Vision blurred, grade 1: 4 no.
  Vision blurred, grade 2: 1 no.
  Vision blurred, grade ≥ 3: 0 no.
  Vomiting, any grade: 9 no.
  Vomiting, grade 1: 7 no.
  Vomiting, grade 2: 2 no.
  Vomiting, grade ≥ 3: 0 no.
  Weight decreased, any grade: 3 no.
  Weight decreased, grade 1: 1 no.
  Weight decreased, grade 2: 2 no.
  Weight decreased, grade ≥ 3: 0 no.
In vivo
  CSR leading to discontinuation: three patients
  discontinuation due to grade 1 hyperphosphatemia: One patient discontinued treatment
  normalization of phosphate elevation: normalized by cycle 5
  retinal vein or artery occlusion: no patient had retinal vein or artery occlusion
  time of peak phosphate elevation after erdafitinib initiation: 6 weeks
Myocardial infarction considered unrelated to treatment
  death as a result of an adverse event: One patient died as a result of an adverse event
Overall trial population
  patients with grade ≥3 treatment-emergent adverse events: 66%
Patients overall
  some type of eye disorder, regardless of relation to treatment: 54%
[2]
  Patients with Alopecia, Grade ≥3: 0 no.
  Patients with Decreased appetite, Grade ≥3: 0 no.
  Patients with Dry mouth, Grade ≥3: 0 no.
  Patients with Dry skin, Grade ≥3: 0 no.
  Patients with Urinary tract infection, Grade 1: 0 no.
  Patients with Vision blurred, Grade ≥3: 0 no.
[3]
  Patients with Alopecia, Any grade: 8 no.
  Patients with Alopecia, Grade 2: 0 no.
  Patients with Alopecia, Grade ≥3: 0 no.
  Patients with Conjunctivitis, Grade 2: 0 no.
  Patients with Conjunctivitis, Grade ≥3: 0 no.
  Patients with Diarrhea, Grade ≥3: 0 no.
  Patients with Dry skin, Grade ≥3: 0 no.
  Patients with Dysgeusia, Grade ≥3: 0 no.
  Patients with Hand-foot syndrome, Grade ≥3: 0 no.
  Patients with Hyperphosphatemia, Grade ≥3: 0 no.
  Patients with Lacrimation increased, Grade ≥3: 0 no.
  Patients with Nausea, Grade ≥3: 0 no.
  Patients with Onychomadesis, Grade ≥3: 0 no.
  Patients with Paronychia, Grade ≥3: 0 no.
  Patients with Retinal detachment, Grade ≥3: 0 no.
[4]
  Patients with Arrhythmia-related events, Any grade: 0 no.
  Patients with Arrhythmia-related events, Grade ≥3: 0 no.
[5]
  Patients with Alopecia, Grade ≥3: 0 no.
  Patients with Conjunctivitis, Grade ≥3: 0 no.
  Patients with Decreased appetite, Grade ≥3: 0 no.
  Patients with Diarrhea, Grade 2: 5 no.
  Patients with Dry mouth, Grade ≥3: 0 no.
  Patients with Dry skin, Grade ≥3: 0 no.
  Patients with Dysgeusia, Grade ≥3: 0 no.
  Patients with Fatigue, Grade ≥3: 0 no.
  Patients with Hand-foot syndrome, Grade 1: 0 no.
  Patients with Hand-foot syndrome, Grade ≥3: 0 no.
  Patients with Hyperphosphatemia, Grade ≥3: 0 no.
  Patients with Lacrimation increased, Grade 2: 0 no.
  Patients with Lacrimation increased, Grade ≥3: 0 no.
  Patients with Nausea, Grade ≥3: 0 no.
  Patients with Onychomadesis, Grade 2: 0 no.
  Patients with Onychomadesis, Grade ≥3: 0 no.
  Patients with Paronychia, Grade 1: 0 no.
  Patients with Paronychia, Grade ≥3: 0 no.
  Patients with Retinal detachment, Grade ≥3: 0 no.
  Patients with Vision blurred, Grade ≥3: 0 no.
